Results on 6 molecules are retold here after PMC12155096 (International Journal of Molecular Sciences, 2025).

For series [1], the target named is T1, CYP3A4 (Homo sapiens, UniProt P08684).
Series [2] addresses T2, human CYP2D6 (Homo sapiens, UniProt P10635). The settings on record: for CYP2D6 Efficacy (in parenthesis): human.
In series [3] the target is T3, human CYP1A2 (Homo sapiens, UniProt P05177).
T3 sequence (P05177 1-516): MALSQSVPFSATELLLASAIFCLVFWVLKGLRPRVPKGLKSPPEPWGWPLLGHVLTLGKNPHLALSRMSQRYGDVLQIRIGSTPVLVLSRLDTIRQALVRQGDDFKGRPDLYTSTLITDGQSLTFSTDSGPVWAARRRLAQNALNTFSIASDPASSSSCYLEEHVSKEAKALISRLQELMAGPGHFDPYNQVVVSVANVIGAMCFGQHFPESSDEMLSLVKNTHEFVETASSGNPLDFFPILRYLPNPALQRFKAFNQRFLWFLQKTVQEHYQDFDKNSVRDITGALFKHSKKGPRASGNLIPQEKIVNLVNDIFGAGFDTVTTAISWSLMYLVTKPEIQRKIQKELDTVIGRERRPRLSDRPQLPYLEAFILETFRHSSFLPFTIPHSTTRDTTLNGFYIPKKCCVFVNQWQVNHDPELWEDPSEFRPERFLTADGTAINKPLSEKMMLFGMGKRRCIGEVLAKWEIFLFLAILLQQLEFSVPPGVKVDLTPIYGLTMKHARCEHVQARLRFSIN
The series can be described thus: biochemical. As to conditions: for AC50: CYP1A2 AC50 (half-maximal activity concentration).

In series [4] the target is T2, human CYP2D6. The series can be described thus: biochemical. The settings on record: for AC50: CYP2D6 AC50 (half-maximal activity concentration).
The target in series [5] is T1, CYP3A4. The series can be described thus: biochemical. The settings on record: for IC50: CYP3A4 IC50 (half-maximal inhibitory concentration); for AC50: CYP3A4 AC50 (half-maximal activity concentration).
For series [6], the target named is T4, human CYP2C9 (Homo sapiens, UniProt P11712). As to conditions: for CYP2C9 Efficacy (in parenthesis): human.
T4 sequence (P11712 whole entry): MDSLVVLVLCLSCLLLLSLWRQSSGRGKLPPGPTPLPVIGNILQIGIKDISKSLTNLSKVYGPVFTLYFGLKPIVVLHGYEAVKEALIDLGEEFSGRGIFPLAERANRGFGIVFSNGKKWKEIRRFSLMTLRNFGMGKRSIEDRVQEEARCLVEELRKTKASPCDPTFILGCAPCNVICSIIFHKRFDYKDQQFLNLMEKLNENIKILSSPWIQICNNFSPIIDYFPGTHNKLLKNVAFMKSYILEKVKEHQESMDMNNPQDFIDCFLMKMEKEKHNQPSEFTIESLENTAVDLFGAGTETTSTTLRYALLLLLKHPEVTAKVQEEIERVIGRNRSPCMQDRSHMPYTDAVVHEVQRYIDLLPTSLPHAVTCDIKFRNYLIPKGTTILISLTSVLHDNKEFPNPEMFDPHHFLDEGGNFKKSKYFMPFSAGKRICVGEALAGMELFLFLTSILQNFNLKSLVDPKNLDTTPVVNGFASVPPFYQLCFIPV
Series [7] addresses Photinus pyralis (firefly) luciferase (Photinus pyralis, UniProt P08659). The series can be described thus: biochemical. It is filed as biochemical.
Series [8] has as its target T3, human CYP1A2. As to conditions: for CYP1A2 Efficacy (in parenthesis): human.
Series [9] deals with T5, human CYP2C19 (Homo sapiens, UniProt P33261). As to conditions: for CYP2C19 Efficacy (in parenthesis): human.
T5 sequence (P33261 whole entry): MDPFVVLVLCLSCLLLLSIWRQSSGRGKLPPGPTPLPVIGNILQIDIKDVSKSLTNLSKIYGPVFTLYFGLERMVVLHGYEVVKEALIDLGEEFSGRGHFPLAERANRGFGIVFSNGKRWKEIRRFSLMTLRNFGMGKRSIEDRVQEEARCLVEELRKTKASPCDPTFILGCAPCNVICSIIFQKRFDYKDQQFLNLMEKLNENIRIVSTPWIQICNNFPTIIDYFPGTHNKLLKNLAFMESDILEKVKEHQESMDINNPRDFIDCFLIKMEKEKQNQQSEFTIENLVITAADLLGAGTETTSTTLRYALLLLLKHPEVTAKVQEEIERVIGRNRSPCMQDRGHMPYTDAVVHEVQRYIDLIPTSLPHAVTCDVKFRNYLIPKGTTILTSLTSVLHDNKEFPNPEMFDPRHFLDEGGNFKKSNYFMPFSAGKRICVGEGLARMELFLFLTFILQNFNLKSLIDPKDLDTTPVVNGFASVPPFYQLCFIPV
In series [10] the target is T5, human CYP2C19. Put plainly: biochemical. The settings on record: for AC50: CYP2C19 AC50 (half-maximal activity concentration).
Series [11] has as its target T4, human CYP2C9. The series can be described thus: biochemical. As to conditions: for AC50: CYP2C9 AC50 (half-maximal activity concentration).
The mark [12] stands for this setting: CYP1A2 IC50 (half-maximal inhibitory concentration).
[13] abbreviates: CYP2C19 IC50 (half-maximal inhibitory concentration).
[14] abbreviates: CYP2D6 IC50 (half-maximal inhibitory concentration).
[15] abbreviates: CYP2C9 IC50 (half-maximal inhibitory concentration).

Usually IC50 stands for the midpoint of a concentration-inhibition curve. Broadly, the AC50 is the concentration at which the activity in the assay is half-maximal.

Structures can show the parent of a compound that is named as a salt. Where two headings read alike, the source gives them in different places.

Photinus pyralis (firefly) luciferase, sequence (P08659 whole entry): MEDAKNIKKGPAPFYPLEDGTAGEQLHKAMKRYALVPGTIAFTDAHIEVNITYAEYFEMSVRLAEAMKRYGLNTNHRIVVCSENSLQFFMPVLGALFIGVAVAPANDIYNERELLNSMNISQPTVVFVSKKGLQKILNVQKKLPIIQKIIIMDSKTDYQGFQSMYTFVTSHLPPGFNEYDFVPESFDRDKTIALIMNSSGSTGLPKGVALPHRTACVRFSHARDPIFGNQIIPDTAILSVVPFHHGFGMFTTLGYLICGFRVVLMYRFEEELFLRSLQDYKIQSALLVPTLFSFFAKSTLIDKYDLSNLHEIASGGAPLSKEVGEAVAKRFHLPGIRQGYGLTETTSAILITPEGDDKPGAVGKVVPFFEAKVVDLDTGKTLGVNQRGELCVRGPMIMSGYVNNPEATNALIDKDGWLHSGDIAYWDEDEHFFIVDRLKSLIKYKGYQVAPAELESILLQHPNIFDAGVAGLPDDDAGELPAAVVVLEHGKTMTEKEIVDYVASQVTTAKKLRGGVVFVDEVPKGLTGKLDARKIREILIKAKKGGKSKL
T2 sequence (P10635 whole entry): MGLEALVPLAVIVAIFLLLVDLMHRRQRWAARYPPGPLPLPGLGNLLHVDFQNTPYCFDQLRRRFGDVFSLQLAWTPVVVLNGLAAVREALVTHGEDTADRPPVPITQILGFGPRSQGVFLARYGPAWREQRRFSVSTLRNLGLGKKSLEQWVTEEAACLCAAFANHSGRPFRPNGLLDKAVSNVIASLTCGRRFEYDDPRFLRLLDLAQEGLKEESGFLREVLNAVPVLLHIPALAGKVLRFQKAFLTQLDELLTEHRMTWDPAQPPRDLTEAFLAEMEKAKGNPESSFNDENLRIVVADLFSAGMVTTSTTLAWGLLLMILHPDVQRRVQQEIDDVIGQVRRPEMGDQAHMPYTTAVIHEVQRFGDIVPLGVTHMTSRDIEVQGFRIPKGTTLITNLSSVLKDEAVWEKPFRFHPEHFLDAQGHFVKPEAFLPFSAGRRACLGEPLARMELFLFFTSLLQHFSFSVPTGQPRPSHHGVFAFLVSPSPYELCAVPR
T1 sequence (P08684 whole entry): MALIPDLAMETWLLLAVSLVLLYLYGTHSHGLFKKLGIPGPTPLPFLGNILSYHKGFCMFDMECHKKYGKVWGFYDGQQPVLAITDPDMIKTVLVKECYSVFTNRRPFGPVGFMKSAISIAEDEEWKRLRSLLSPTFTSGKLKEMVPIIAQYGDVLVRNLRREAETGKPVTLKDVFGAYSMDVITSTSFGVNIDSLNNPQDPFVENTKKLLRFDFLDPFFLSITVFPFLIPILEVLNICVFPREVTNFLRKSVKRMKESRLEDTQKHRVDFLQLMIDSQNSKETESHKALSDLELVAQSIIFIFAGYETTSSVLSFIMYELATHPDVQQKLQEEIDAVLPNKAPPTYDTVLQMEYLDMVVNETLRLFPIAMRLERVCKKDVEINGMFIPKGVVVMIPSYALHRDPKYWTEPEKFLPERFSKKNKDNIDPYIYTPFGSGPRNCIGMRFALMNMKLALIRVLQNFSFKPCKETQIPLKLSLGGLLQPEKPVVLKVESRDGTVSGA

`CCOP(=S)(OCC)Oc1ccc([N+](=O)[O-])cc1` [Parathion]: on CYP3A4 [1], the “CYP3A4 Efficacy (in parenthesis)” value was 3.18 ± 0.89 (-79 ± 1) %. Also, at human CYP2D6 [2], the “CYP2D6 Efficacy (in parenthesis)” value is given as 32.26 ± 3.71 (-69 ± 3) %. The IC50 at human CYP1A2 [3] (setting [12]) is 0.99 µM; at human CYP2D6 [4] it was 32.3 µM; at CYP3A4 [5], 3.18 µM; on human CYP2C19 [10] (setting [13]), 0.17 µM; against human CYP2C9 [11], 1.62 µM. Besides, on human CYP2C9 [6], the “CYP2C9 Efficacy (in parenthesis)” value is 1.62 ± 0.19 (-99 ± 2) %. The “Luciferase IC50 (half-maximal inhibitory concentration)” value in series [7] is on record as “Inactive”. In addition, at human CYP1A2 [8], the “CYP1A2 Efficacy (in parenthesis)” value is 0.99 ± 0.17 (-96 ± 2) %. In addition, the “CYP2C19 Efficacy (in parenthesis)” value on human CYP2C19 [9] is reported as 0.17 ± 0.04 (-144 ± 4) %.
As for `CC(C)C1CCC(Cc2ccc(Cl)cc2)C1(O)Cn1cncn1` (centres unmarked) [Ipconazole], the “CYP3A4 Efficacy (in parenthesis)” value on CYP3A4 [1] was 0.05 ± 0.01 (-89 ± 5) %. The “CYP2D6 Efficacy (in parenthesis)” value at human CYP2D6 [2] was 22.34 ± 2.57 (-107 ± 15) %. Also, the IC50 against human CYP1A2 [3] (setting [12]) is 35.4 µM; at human CYP2D6 [4] (setting [14]), 22.3 µM; at CYP3A4 [5] it was 0.05 µM; on human CYP2C19 [10] (setting [13]), 0.27 µM; on human CYP2C9 [11] (setting [15]), 0.79 µM. For the same molecule, on human CYP2C9 [6], the “CYP2C9 Efficacy (in parenthesis)” value is recorded as 0.79 ± 0.09 (-94 ± 4) %. Besides, in series [7], the “Luciferase IC50 (half-maximal inhibitory concentration)” value was “Inactive”. Besides, the “CYP1A2 Efficacy (in parenthesis)” value at human CYP1A2 [8] is given as 35.41 ± 4.07 (-90 ± 1) %. Moreover, at human CYP2C19 [9], the “CYP2C19 Efficacy (in parenthesis)” value was 0.27 ± 0.07 (-168 ± 31) %.
For `CCCCN1CCCC[C@H]1C(=O)Nc1c(C)cccc1C` [Levobupivacaine hydrochloride], the “CYP3A4 Efficacy (in parenthesis)” value on CYP3A4 [1] is listed as 9.59 ± 2.39 (-54 ± 7) %. Also, the “CYP2D6 Efficacy (in parenthesis)” value on human CYP2D6 [2] was 0.57 ± 0.04 (-109 ± 3) %. Also, the IC50 at human CYP1A2 [3] (setting [12]) was 17.4 µM; against human CYP2D6 [4] (setting [14]), 0.57 µM; at CYP3A4 [5], 9.59 µM. For the same molecule, the “CYP2C9 IC50 (half-maximal inhibitory concentration)” value at human CYP2C9 [6] is given as “Inactive”. Also, the “Luciferase IC50 (half-maximal inhibitory concentration)” value in [7] is on record as “Inactive”. Further, the “CYP1A2 Efficacy (in parenthesis)” value on human CYP1A2 [8] is listed as 17.38 ± 0 (-62 ± 5) %. Moreover, the “CYP2C19 IC50 (half-maximal inhibitory concentration)” value at human CYP2C19 [9] is reported as “Inactive”.
For the molecule `COC(=O)N(OC)c1ccccc1COc1ccn(-c2ccc(Cl)cc2)n1` [Pyraclostrobin], the “CYP3A4 Efficacy (in parenthesis)” value on CYP3A4 [1] is 1.31 ± 0.09 (52 ± 7) %. Moreover, the “CYP3A4 IC50 (half-maximal inhibitory concentration)” value on CYP3A4 [1] is given as 1.31 ± 0.09 (52 ± 7) µM. At human CYP2D6 [2], the “CYP2D6 Efficacy (in parenthesis)” value is given as 32.63 ± 15.32 (-79 ± 28) %. For the same molecule, the AC50 at human CYP1A2 [3] came out at 0.99 µM; on human CYP2D6 [4], 32.6 µM; at CYP3A4 [5], 1.31 µM; on human CYP2C19 [10] it was 0.57 µM; on human CYP2C9 [11], 5.35 µM. Also, the IC50 was 0.99 µM at human CYP1A2 [3] (setting [12]); 32.6 µM against human CYP2D6 [4] (setting [14]); 56.4 µM in [7]; 0.57 µM on human CYP2C19 [10] (setting [13]); 5.35 µM on human CYP2C9 [11] (setting [15]). For the same molecule, the “CYP2C9 Efficacy (in parenthesis)” value on human CYP2C9 [6] was 5.35 ± 1.51 (-104 ± 6) %. The “CYP1A2 Efficacy (in parenthesis)” value on human CYP1A2 [8] is 0.99 ± 0.24 (-102 ± 3) %. Also, the “CYP2C19 Efficacy (in parenthesis)” value on human CYP2C19 [9] is given as 0.57 ± 0.25 (-152 ± 29) %.
Turning to `CCN(CCCc1ccccc1)CCCc1ccccc1` [Alverine citrate], the “CYP3A4 IC50” value on CYP3A4 [1] was 14.43 ± 1.84 (65 ± 11) µM. For the same molecule, the AC50 is 9.92 µM on human CYP1A2 [3], 0.87 µM at human CYP2D6 [4], 14.4 µM at CYP3A4 [5] and 7.04 µM at human CYP2C19 [10]. The IC50 on human CYP1A2 [3] (CYP1A2 IC50) was 9.92 µM; against human CYP2D6 [4] (CYP2D6 IC50) it was 0.87 µM; against human CYP2C19 [10] (CYP2C19 IC50), 7.04 µM. Further, at human CYP2C9 [6], the “CYP2C9 IC50” value is given as “Inactive”. Besides, the “Luciferase IC50” value in series [7] is recorded as “Inactive”.
For `ClC(c1ccccc1)(c1ccccc1)c1ccccc1` [Trityl chloride], at CYP3A4 [1], the “CYP3A4 IC50 (half-maximal inhibitory concentration)” value is recorded as 6.9 ± 1.18 (56 ± 3) µM. Also, on human CYP2D6 [2], the “CYP2D6 AC50 (half-maximal activity concentration)” value is given as “Inconclusive inhibitor”. The 50% inhibitory concentration (IC50) against human CYP1A2 [3] (setting [12]) stood at 75.3 µM; against human CYP2D6 [4] (setting [14]), 62.1 µM; on human CYP2C19 [10] (setting [13]), 0.26 µM; against human CYP2C9 [11] (setting [15]) it was 1.48 µM. Moreover, the results for the AC50 at CYP3A4 [5], at human CYP2C19 [10] and at human CYP2C9 [11] were 6.9 µM, 0.26 µM and 1.48 µM, respectively. For the same molecule, the “Luciferase IC50 (half-maximal inhibitory concentration)” value in series [7] was “Inactive”. The “CYP1A2 AC50 (half-maximal activity concentration)” value on human CYP1A2 [8] is “Inconclusive inhibitor”.
